Results taken from PubChem BioAssay (NCI).
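48-hour exposure; five concentrations; linearly interpolated endpoints. TGI denotes the concentration required for complete inhibition of growth.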

Columns and labels:
Assay in all cases: NCI-60 cell line screen, 48 h
A549 NSCLC = test system: A549 NSCLC
CCRF-CEM leukemia = test system: CCRF-CEM leukemia
DU-145 prostate = test system: DU-145 prostate
HS 578T breast = test system: HS 578T breast
MDA-MB-435 = test system: MDA-MB-435
NCI-H522 lung = test system: NCI-H522 lung
SF-268 CNS = test system: SF-268 CNS
SF-295 CNS = test system: SF-295 CNS
SNB-75 CNS = test system: SNB-75 CNS
SR leukemia = test system: SR leukemia
TK-10 renal = test system: TK-10 renal

Compound	TGI (A549 NSCLC) [µM]	TGI (CCRF-CEM leukemia) [µM]	TGI (DU-145 prostate) [µM]	TGI (HS 578T breast) [µM]	TGI (MDA-MB-435) [µM]	TGI (NCI-H522 lung) [µM]	TGI (SF-268 CNS) [µM]	TGI (SF-295 CNS) [µM]	TGI (SNB-75 CNS) [µM]	TGI (SR leukemia) [µM]	TGI (TK-10 renal) [µM]
CC(C)=CCC[C@@H](C)C1=C(Nc2ccccc2)C(O)=C(C)C(=O)C1=O	13.5	0.874	28.2	9.5	> 48.3	16.5	25.2	11.1	15.6	6.08	> 55.1
CSc1ccc(-c2cc(-c3nc4ccccc4[nH]3)nc3[nH]c(-c4nc5ccccc5[nH]4)cc(=O)c23)cc1	> 100	> 100	> 100	> 100	> 100	> 100	> 100	> 100	> 100	> 100	> 100
NC(=O)NC(=O)c1ccc(NC(=O)CBr)cc1	> 32.6	0.376	6.92	7.37	3.06	0.277	3.09	27.3	4.19	1.01	2.68
Cc1nc2ccc(N=NN(C)C)cc2[nH]1	> 100	> 100	> 100	> 100	> 100	> 100	> 100	> 100	> 100	> 100	> 100
C/C(=C/CNc1ncnc2c1ncn2CCC#N)CO	> 100	> 100	> 100	> 100	> 100	> 100	> 100	> 100	> 100	> 100	> 100
